Results on three molecules are retold here after PMC6269977, “Chemistry and Antiviral Activity of Arrabidaea pulchra (Bignoniaceae)” (Molecules, 2013).

Molecules are shown by their SMILES. Values after ≈ are worked out from the molar mass of the structure shown.

Data set [1] relates to Human herpesvirus 1 (HSV-1). Briefly: microbe, parasite or virus in culture. The note with it: for EC50: Human alphaherpesvirus 1; for EC50 / HSV-1 EC50: viral titer TCID50/mL 2.5 × 10^6 in 48 h, NA = no activity in the assayed concentrations. Format: cell-based.
Data set [2] has as its system Vaccinia virus Western Reserve (VACV-WR). Format: cell-based.
In data set [3] the test system is Murine encephalomyocarditis virus (EMCV). The data set is classed as cell-based. To be noted: viral titer TCID50/mL 1.0 × 10^6 in 48 h; NA = no activity in the assayed concentrations.
A further data set has as its system Dengue virus 2 (DENV-2). Put plainly: microbe, parasite or virus in culture. Format: cell-based. To be noted: DENV2, viral titer TCID50/mL 1.0 × 10^4 in 72 h.
A short description of data set [4]: in vitro. The note with it: African green monkey.
A short description of data set [5]: in vitro. To be noted: rhesus monkey.
The test system of data set [6] is respiratory syncytial virus (RSV). To be noted: isolated from Markhamia lutea; cited from earlier work.
A further data set concerns HSV-1. To be noted: cited from earlier work.
A further data set relates to HSV-2. The note with it: cited from earlier work.

Consider `C[C@H]1[C@H](C)CC[C@]2(C(=O)O)CC[C@]3(C)C(=CC[C@@H]4[C@@]5(C)CC[C@H](O)C(C)(C)[C@@H]5CC[C@]43C)[C@H]12` [AP 3, ursolic acid], for which the EC50 in data set [1] was 6.2 ± 0.1 µg/mL (≈ 13.6 µM); with Dengue virus 2 (DENV-2), 3.2 µg/mL (≈ 7.01 µM). In data set [1] (at concentrations as low 2 μg/mL, Figure 4A), this molecule yielded an HSV-1 virus inhibition of 50%. Further, the “HSV-1 EC50” value in [1] is “low activity”. Also, the “VACV-WR EC50” value in data set [2] is recorded as “not active”. In [3], the “EMCV EC50” value is recorded as “not active”. Further, the CC50 came to 8.1 ± 0.9 µg/mL (≈ 17.7 µM) in the data set “in vitro [4]” and 9.9 ± 1.3 µg/mL (≈ 21.7 µM) in “in vitro [5]”.

On to `Nc1nc2c(ncn2COCCO)c(=O)[nH]1` [Acyclovir, reference compound], for which the half-maximal effective concentration (EC50) in data set [1] stood at 40 µg/mL (≈ 178 µM).

As to `C[C@@H]1O[C@@H](O[C@@H]2[C@@H](O)[C@H](OCCc3ccc(O)c(O)c3)O[C@H](CO)[C@H]2OC(=O)/C=C/c2ccc(O)c(O)c2)[C@H](O)[C@H](O)[C@H]1O` [AP 1, verbascoside], the entries for the “HSV-1 EC50” value (in [1]; with HSV-1) were “no effect was observed” and 58.0 µg/mL, respectively. The “VACV-WR EC50” value in [2] is given as “not active”. Also, the “EMCV EC50” value in [3] was “not active”. Besides, the EC50 in the data set with Dengue virus 2 (DENV-2) came to 3.4 ± 0.4 µg/mL (≈ 5.44 µM). Moreover, the “RSV EC50” value in [6] is recorded as 0.80 µg/mL. The anti-herpes activity entry with HSV-1 (previous report) was “had not shown anti-herpes activity”. Moreover, the “HSV-2 EC50” value in the data set with HSV-2 is listed as 8.9 µg/mL. In addition, the CC50 was > 200 µg/mL in the data set “in vitro [4]” and 12.9 ± 1.1 µg/mL (≈ 20.7 µM) in “in vitro [5]”.
